The text below walks through data of patent publication US20100240537A1, “Substituted 6-(alkylbenzylamino)purine derivatives for use as cytokinin receptor antagonists and preparations containing these derivatives” (priority 2007, published 2010).

Test [1] concerns A. thaliana wild-type and double receptor mutant seedlings. The experiment in a line: Lateral root formation of Arabidopsis seedlings. The format is in vivo, Arabidopsis thaliana. As to conditions: 1 and 5 nM BA alone, MS medium. The protocol: (A) Number of lateral roots formed by wild-type Arabidopsis seedlings (11 DAG)—from left: DMSO control, formation in the presence of cytokinin BA, or compound 8, and antagonism when both compounds were added. (B) Increase in number of lateral roots found with WT and double-receptor mutant seedlings grown on medium containing compound 8.
Cytokinins are known as negative regulators of root growth and development. We grew A. thaliana wild-type and double receptor mutant seedlings with decreased perception of cytokinins on MS medium containing either 1 and 5 nM cytokinin BA to confirm the cytokinin inhibitory effect on initiation of lateral roots, or 1 and 10 nM compound 8, or combination of these substances in concentrations indicated in FIG. 4A.

Test [2] concerns Arabidopsis seedlings (wild-type, receptor double mutants). In words: Primary root length of Arabidopsis seedlings. The format is in vivo. As to conditions: 1 μM. The protocol: FIG. 5 Effect of compound 8 on primary root length of Arabidopsis seedlings. Increase in the length of the primary roots observed in ahk2 ahk3 double mutant seedlings (6 DAG) grown on medium containing 1 μM compound 8.
However, when 1 μM compound 8 was applied to the growth media of ahk2 ahk3 double mutants, significant increase (about 15%) in the length of the primary roots was observed compared to untreated control (FIG. 5).

Test [3] concerns wild-type Arabidopsis seeds. In words: Germination of Arabidopsis seeds. The format is in vivo. The protocol: Early germination of wild-type Arabidopsis seeds cultivated on MS medium containing indicated concentrations of compound 8 after replacement from dark to white light (16 h light/8 hours dark).
Subsequent testing confirmed positive effect of the compound 8 on germination. After sowing and pretreatment in dark at 4° C., seeds were transferred to light and ambient temperature. After 30 hours more than 60% of seeds sown on medium containing 1 nM compound 8 were germinating, which was twice as much as in the case of control sown on compound 8 free medium. The number of germinating seeds was further enhanced with higher concentration of compound 8 and 80% of seeds were germinated when 10 nM compound 8 was present in the medium (FIG. 6).

For the compound `c1ccc(CNc2ncnc3nc[nH]c23)cc1` [6-(benzylamino)purine], the “formation of lateral roots” value in test [1] is reported as “inhibited formation of lateral roots”. The “elongation of the primary root, wild-type seedlings” value in test [2] (wild-type) is given as “almost completely inhibited”.
Consider `Cc1cccc(CNc2ncnc3nc[nH]c23)c1O` [Compound 8, 6-(2-hydroxy-3-methylbenzylamino)purine], for which the germinating seeds result in test [3] (1 nM in medium, after 30 hours in light) is reported as “more than 60%”. This compound also yielded a germinated seeds in test [3] (10 nM in medium) of 80%. Also, in test [2] (ahk2 ahk3 double mutants, 6 DAG), the “increase in the length of the primary roots compared to untreated control” value is “about 15%”.
